Results taken from ChEMBL document CHEMBL1212763, “Pharmacokinetics and safety of S/GSK1349572, a next-generation HIV integrase inhibitor, in healthy volunteers” (Antimicrob Agents Chemother, 2010).

Assays:
Format in all cases: ADME, organism-based
[1] = Cmax in healthy human at 5 mg administered as single dose suspension; set-up: dose 5 mg; conditions: in vivo
[2] = Cmax in healthy human at 10 mg administered as single dose suspension; set-up: dose 10 mg; conditions: in vivo
[3] = Cmax in healthy human at 25 mg administered as single dose suspension; set-up: dose 25 mg; conditions: in vivo
[4] = Cmax in healthy human at 50 mg administered as single dose suspension; set-up: dose 50 mg; conditions: in vivo
[5] = Cmax in healthy human at 100 mg administered as single dose suspension; set-up: dose 100 mg; conditions: in vivo
[6] = Tmax in healthy human at 2 mg administered as single dose suspension; conditions: in vivo
[7] = Tmax in healthy human at 5 mg administered as single dose suspension; conditions: in vivo
[8] = Tmax in healthy human at 10 mg administered as single dose suspension; conditions: in vivo
[9] = Tmax in healthy human at 25 mg administered as single dose suspension; conditions: in vivo
[10] = Tmax in healthy human at 50 mg administered as single dose suspension; conditions: in vivo
[11] = Tmax in healthy human at 100 mg administered as single dose suspension; conditions: in vivo
[12] = AUC (0-t) in healthy human at 2 mg administered as single dose suspension; conditions: plasma
[13] = AUC (0-t) in healthy human at 5 mg administered as single dose suspension; conditions: plasma
[14] = AUC (0-t) in healthy human at 10 mg administered as single dose suspension; conditions: plasma
[15] = AUC (0-t) in healthy human at 25 mg administered as single dose suspension; conditions: plasma
[16] = AUC (0-t) in healthy human at 50 mg administered as single dose suspension; conditions: plasma
[17] = AUC (0-t) in healthy human at 100 mg administered as single dose suspension; conditions: plasma
[18] = AUC (0-infinity) in healthy human at 2 mg administered as single dose suspension; set-up: dose 2 mg, time infinity; conditions: plasma
[19] = AUC (0-infinity) in healthy human at 5 mg administered as single dose suspension; set-up: dose 5 mg, time infinity; conditions: plasma
[20] = AUC (0-infinity) in healthy human at 10 mg administered as single dose suspension; set-up: dose 10 mg, time infinity; conditions: plasma
[21] = AUC (0-infinity) in healthy human at 25 mg administered as single dose suspension; set-up: dose 25 mg, time infinity; conditions: plasma
[22] = AUC (0-infinity) in healthy human at 50 mg administered as single dose suspension; set-up: dose 50 mg, time infinity; conditions: plasma
[23] = AUC (0-infinity) in healthy human at 100 mg administered as single dose suspension; set-up: dose 100 mg, time infinity; conditions: plasma
[24] = Apparent oral clearance in healthy human at 2 mg administered as single dose suspension; conditions: in vivo
[25] = Apparent oral clearance in healthy human at 5 mg administered as single dose suspension; conditions: in vivo
[26] = Apparent oral clearance in healthy human at 10 mg administered as single dose suspension; conditions: in vivo
[27] = Apparent oral clearance in healthy human at 25 mg administered as single dose suspension; conditions: in vivo
[28] = Apparent oral clearance in healthy human at 50 mg administered as single dose suspension; conditions: in vivo
[29] = Apparent oral clearance in healthy human at 100 mg administered as single dose suspension; conditions: in vivo
[30] = Half life in healthy human at 2 mg administered as single dose suspension; conditions: in vivo
[31] = Half life in healthy human at 5 mg administered as single dose suspension; conditions: in vivo
[32] = Half life in healthy human at 10 mg administered as single dose suspension; conditions: in vivo
[33] = Half life in healthy human at 25 mg administered as single dose suspension; conditions: in vivo
[34] = Half life in healthy human at 50 mg administered as single dose suspension; conditions: in vivo
[35] = Half life in healthy human at 100 mg administered as single dose suspension; conditions: in vivo
[36] = Drug level at 24 hrs in healthy human at 2 mg administered as single dose suspension; conditions: in vivo, read-out: Drug uptake
[37] = Drug level at 24 hrs in healthy human at 5 mg administered as single dose suspension; conditions: in vivo, read-out: Drug uptake

C[C@@H]1CCO[C@H]2Cn3cc(C(=O)NCc4ccc(F)cc4F)c(=O)c([O-])c3C(=O)N12.[Na+] [DOLUTEGRAVIR SODIUM]
Cmax [1]: 661 ng/mL | Cmax [2]: 1230 ng/mL | Cmax [3]: 2760 ng/mL | Cmax [4]: 4560 ng/mL | Cmax [5]: 8140 ng/mL | Tmax [6]: 0.63 h | Tmax [7]: 0.5 h | Tmax [8]: 0.63 h | Tmax [9]: 0.75 h | Tmax [10]: 1.25 h | Tmax [11]: 1 h | AUC(0-t) [12]: 2630 ng·h/mL | AUC(0-t) [13]: 8540 ng·h/mL | AUC(0-t) [14]: 14300 ng·h/mL | AUC(0-t) [15]: 34300 ng·h/mL | AUC(0-t) [16]: 70800 ng·h/mL | AUC(0-t) [17]: 131000 ng·h/mL | AUC(0-inf) [18]: 2780 ng·h/mL | AUC(0-inf) [19]: 8870 ng·h/mL | AUC(0-inf) [20]: 14600 ng·h/mL | AUC(0-inf) [21]: 35100 ng·h/mL | AUC(0-inf) [22]: 73200 ng·h/mL | AUC(0-inf) [23]: 136000 ng·h/mL | CL/F [24]: 12 mL/min | CL/F [25]: 9.33 mL/min | CL/F [26]: 11.5 mL/min | CL/F [27]: 11.8 mL/min | CL/F [28]: 11.3 mL/min | CL/F [29]: 12.3 mL/min | half-life [30]: 12.7 h | half-life [31]: 14.3 h | half-life [32]: 12.7 h | half-life [33]: 12.7 h | half-life [34]: 14.2 h | half-life [35]: 14.7 h | concentration at 24 h [36]: 38.2 ng/mL | concentration at 24 h [37]: 126 ng/mL
